Assay results published in article PMC3340383, “Synthesis and Evaluation of a Series of 2-Substituted-5-Thiopropylpiperazine (Piperidine)-1,3,4-Oxadiazoles Derivatives as Atypical Antipsychotics” (PLoS ONE, 2012).

Assays:
[1] = target: T1, serotonin 5-HT1A receptor (Rattus norvegicus, UniProt P19327); test: 5-HT1A binding assay ([3H]8-OH-DPAT, rat brain cortex); settings: [3H]8-OH-DPAT, rat brain cortex; mean of three experiments; >10000 marked b: Ki not calculated, inhibition at 10 µM too low; read-out: Ki±SEM, 5HT1A
T1 construct: Rat cerebral cortex was homogenized in 20 volumes of ice-cold Tris-HCl buffer; from tissue; host or cells: rat brain (cerebral) cortex
T1 sequence (P19327 1-422): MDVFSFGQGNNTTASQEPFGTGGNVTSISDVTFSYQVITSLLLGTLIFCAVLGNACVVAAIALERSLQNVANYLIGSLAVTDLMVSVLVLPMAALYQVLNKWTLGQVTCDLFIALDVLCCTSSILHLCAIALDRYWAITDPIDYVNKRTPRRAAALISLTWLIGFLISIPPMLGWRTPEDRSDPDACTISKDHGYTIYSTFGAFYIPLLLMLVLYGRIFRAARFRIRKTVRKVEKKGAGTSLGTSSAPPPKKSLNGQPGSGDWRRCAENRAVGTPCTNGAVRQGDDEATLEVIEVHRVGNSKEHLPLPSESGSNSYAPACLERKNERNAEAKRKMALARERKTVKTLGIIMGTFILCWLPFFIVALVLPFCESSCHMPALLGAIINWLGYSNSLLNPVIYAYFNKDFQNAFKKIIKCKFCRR
Method: (§1) All the new compounds were dissolved in 5% DMSO. The following specific radioligands and tissue sources were used: (a) serotonin 5-HT1A receptor, [^3H]8-OH-DPAT, rat brain cortex; (b) serotonin 5-HT2A receptor, [^3H]ketanserin, rat brain cortex; (c) serotonin 5-HT2C receptor, [^3H]mesulergine, rat brain cortex; (d) dopamine D2 receptor, [^3H]spiperone, rat striatum; (e) dopamine D3 receptor, [^3H]spiperone, rat olfactory tubercle (f) histamine H1 receptor, [^3H] pyrilamine, guinea pig cerebellum.
(§2) Total binding was determined in the absence of no-specific binding and compounds. Specific binding was determined in the presence of compounds. Non-specific binding was determined as the difference between total and specific binding.
(§3) Percentage of inhibition (%) = (total binding − specific binding)×100%/(total binding − nonspecific binding).
(§4) Ki values were calculated based on the Cheng and Prussoff equation: Ki = IC50/(1+C/Kd) where C represents the concentration of the hot ligand used and Kd its receptor dissociation constant were calculated for each labeled ligand. Mean Ki values and SEM were reported for at least three independent experiments.
Rat cerebral cortex was homogenized in 20 volumes of ice-cold Tris-HCl buffer (50 mM, pH 7.7) using an ULTRA TURAX homogeniser, and was then centrifuged at 32000 g for 10 min. […] The final pellet was resuspended in Tris-HCl buffer containing 10 µM Pargyline, 4 mM CaCl2 and 0.1% ascorbic acid.
Total binding each assay tube was added 900 µL of the tissue suspension, 50 µL of 0.5 nM [^3H]8-OH-DPAT (187.4 Ci/mmol, Perkin Elmer Life Sciences, Boston, MA, USA), 50 µL Tris-HCl buffer containing 10 µM Pargyline, 4 mM CaCl2 and 0.1% ascorbic acid.
Non-specific binding each assay tube was added 900 µL of the tissue suspension, 50 µL of 0.5 nM [^3H]8-OH-DPAT, 50 µL of 10 µM serotonin.
Specific binding each assay tube was added 900 µL of the tissue suspension, 50 µL of 0.5 nM [^3H]8-OH-DPAT, 50 µL of new compounds or reference drug.
(§5) The incubation was followed by a rapid vacuum filtration through Whatman GF/B glass filters, and the filtrates were washed twice with 5mL cold buffer and transferred to scintillation vials. Scintillation fluid (3.0 mL) was added and the radioactivity bound was measured using a Beckman LS 6500 liquid scintillation counter.

[2] = target: T2, serotonin 5-HT2C receptor (Rattus norvegicus, UniProt P08909); test: 5-HT2C binding assay ([3H]mesulergine, rat brain cortex); settings: mean of three experiments, read-out: Ki±SEM, 5HT2C
T2 construct: Rat cerebral cortex was homogenized in 20 volumes of ice-cold Tris-HCl buffer; from tissue; host or cells: rat brain (cerebral) cortex
T2 sequence (P08909 33-460): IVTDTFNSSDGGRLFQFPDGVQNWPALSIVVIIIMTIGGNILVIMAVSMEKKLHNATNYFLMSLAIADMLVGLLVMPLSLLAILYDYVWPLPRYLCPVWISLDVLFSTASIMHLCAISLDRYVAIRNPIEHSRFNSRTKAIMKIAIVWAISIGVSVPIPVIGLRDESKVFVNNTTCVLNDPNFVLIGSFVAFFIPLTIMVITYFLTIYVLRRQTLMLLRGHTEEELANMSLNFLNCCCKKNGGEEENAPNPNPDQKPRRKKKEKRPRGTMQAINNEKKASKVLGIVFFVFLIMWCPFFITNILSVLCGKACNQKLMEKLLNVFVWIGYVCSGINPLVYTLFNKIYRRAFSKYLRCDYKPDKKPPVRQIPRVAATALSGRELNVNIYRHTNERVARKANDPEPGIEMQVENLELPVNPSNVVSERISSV
Method: as §1
Total binding was determined in the absence of no-specific binding and compounds. Specific binding was determined in the presence of compounds. Non-specific binding was determined as the difference between total and specific binding. […]
Ki values were calculated based on the Cheng and Prussoff equation: Ki = IC50/(1+C/Kd) where C represents the concentration of the hot ligand used and Kd its receptor dissociation constant were calculated for each labeled ligand. […]
The resulting pellet was resuspended in the same quantity of the buffer centrifuged for 20 min. […]
as §5, with “5 mL” for “5mL”

histamine H1 receptor = target: T3, histamine H1 receptor (Cavia porcellus, UniProt P31389); test: Histamine H1 binding assay ([3H]pyrilamine, guinea pig cerebellum); settings: [3H]pyrilamine, guinea pig cerebellum; mean of three experiments; >10000 marked b: Ki not calculated, inhibition at 10 µM too low; read-out: Ki±SEM, H1
T3 construct: Guinea pig cerebellum was homogenized in 20 volumes of ice-cold 50 mM phosphate buffer; from tissue; host or cells: guinea pig cerebellum
Method: as §1, §2, §3, §4
as §5, with “5 mL” for “5mL”

[3] = Pharmacokinetics study in rat; type: in vivo; settings: rats
Method: The HPLC conditions were as follows: column, Shim-pack ODS 5.0 µm×150 mm×2.0 mm I.D (SHIMADZU, Japanese); mobile phase, 0.0167% HCOOH (TEDIA Company, USA)/acetonitrile (Merck Company, Germany)50/50; flow rate, 0.2 mL/min; column temperature, 40°C.
For routine compound 22 screening rats (n = 6/group) were dosed via the lateral tail vein at the indicated dose for intravenous administration (5 mg/kg, 100% saline) or via oral gavage (20 mg/kg, suspension in 0.5% methylcellulose). At 30 min, 1 h, 2 h, 3 h, 4 h, 5 h, 6 h, 7 h and 24 h after administration, serial blood samples were collected from the lateral tail vein into heparinized collection tubes (approximately 0.25 mL). The plasma was separated by centrifugation, and the sample was prepared for analysis HPLC/MS by protein precipitation with acetonitrile. The plasma samples were analyzed for drug and internal standard via HPLC-MS/MS protocol.

[4] = system: MK-801-induced hyperactivity in mice; test: MK-801-induced hyperactivity; settings: mice, po; 95% confidence limits in parentheses

T3 sequence (P31389 whole entry): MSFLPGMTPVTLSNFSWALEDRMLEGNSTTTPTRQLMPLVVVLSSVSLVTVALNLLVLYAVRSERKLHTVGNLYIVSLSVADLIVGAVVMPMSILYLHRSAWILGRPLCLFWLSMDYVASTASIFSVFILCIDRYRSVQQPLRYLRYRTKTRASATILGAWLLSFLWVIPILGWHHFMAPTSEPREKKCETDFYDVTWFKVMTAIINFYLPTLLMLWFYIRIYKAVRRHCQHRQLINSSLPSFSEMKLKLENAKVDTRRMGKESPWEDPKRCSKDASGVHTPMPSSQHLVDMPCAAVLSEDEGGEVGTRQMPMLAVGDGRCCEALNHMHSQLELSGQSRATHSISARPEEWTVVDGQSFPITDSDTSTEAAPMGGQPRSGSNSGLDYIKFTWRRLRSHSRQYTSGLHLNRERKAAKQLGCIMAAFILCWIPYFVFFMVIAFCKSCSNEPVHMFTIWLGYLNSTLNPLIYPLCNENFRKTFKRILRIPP

Fc1ccc2c(C3CCN(CCCSc4nnc(-c5cccc6ccccc56)o4)CC3)noc2c1 [Compound 22, 2-(3-(4-(6-fluorobenzo[d]isoxazol-3-yl)piperidin-1-yl)propylthio)-5-(naphthalen-1-yl)-1,3,4-oxadiazole]
Ki [1]: 4.6 ± 0.8 nM
Ki [2]: 861 ± 86.2 nM
Ki (histamine H1 receptor): > 10000 nM
AUC0-inf ([3]; i.v. 5 mg/kg, plasma, n = 6): 6239.0 ng·h/mL
t1/2 ([3]; i.v. 5 mg/kg, plasma, n = 6): 9.3 h
F (bioavailability) ([3]; oral 20 mg/kg vs i.v. 5 mg/kg): 54.5%
AUC0-inf ([3]; oral 20 mg/kg, plasma, n = 6): 13602.7 ng·h/mL
Cmax ([3]; oral 20 mg/kg, plasma, n = 6): 723.6 ng/mL
Tmax ([3]; oral 20 mg/kg, plasma, n = 6): 5 h
t1/2 ([3]; oral 20 mg/kg, plasma, n = 6): 8.6 h
MK-801-induced hyperactivity ED50 (B) [4]: 3.58 (2.59–8.28) mg/kg
